We go through 12 molecules from US7468375B2 (Pfizer Inc., priority 2004, dated 2008).

Test [1] concerns RF strain of HIV-1 in CEM-SS cells. The test can be described thus: HIV-1 cell protection assay (XTT dye reduction). The following applies: Human immunodeficiency virus 1, CEM-SS, 144 h, HIV-1 RF, CEM-SS cells, XTT dye reduction, six days; read-out: EC50. The format is cell-based. In outline: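 CEM-SS cells infected with HIV-1 RF (moi 0.025–0.819) or mock-infected, 2×10^4 cells/well with half-log compound dilutions for six days. Viability by XTT/PMS reduction (4 h), absorbance 450 nm, as % of uninfected untreated cells. Therapeutic index = CC50/EC50.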

Test [2] concerns the target T1, Full-length wild type HIV-1 integrase (SF1) (Human immunodeficiency virus type 1 group M subtype B, UniProt P04585).
T1 construct: made in house; host or cells: E. coli BL21 (DE3)
The test can be described thus: Integrase strand-transfer scintillation proximity assay. The format is biochemical. The following applies: strand transfer, 50 min at 37° C., 246 nM integrase, 50 nM host DNA; read-out: IC50. In outline: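 Recombinant full-length wild-type HIV-1 integrase (aa 1-288), E. coli-expressed, tested on biotinylated pre-processed U5 LTR viral ds-DNA with CA overhang bound to streptavidin SPA beads. [3H]-thymidine-labelled host ds-DNA serves as target; strand transfer read by scintillation proximity. A 3′ di-deoxy viral DNA control checks non-specific binding.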
Background: In a scintillation proximity assay essentially only radioactivity close to the scintillant gives light.

As a reminder, the EC50 is the midpoint of the concentration-response curve. The term IC50 denotes the midpoint of a concentration-inhibition curve. Regarding `CCCN(Cc1cn(Cc2ccc(F)cc2F)c2cnc(C(=O)NO)cc12)CC1CC1` [Example 73, 3-{[(Cyclopropylmethyl)(propyl)amino]methyl}-1-(2,4-difluorobenzyl)-N-hydroxy-1H-pyrrolo[2,3-c]pyridine-5-carboxamide], the EC50 in test [1] turned out to be 35 nM. For the same molecule, in test [2], the IC50 was 658 nM.

Consider `O=C(NO)c1cc2c(cn1)c(C(O)c1ccc(F)cc1)cn2Cc1ccc(F)cc1` (stereo not drawn) [Example 31, 1-(4-Fluorobenzyl)-3-[(4-fluorophenyl)(hydroxy)methyl]-N-hydroxy-1H pyrrolo[3,2-c]pyridine-6-carboxamide], for which, in test [1], the EC50 is 14 nM. Also, in test [2], the IC50 amounted to 186 nM.

`O=C(NO)c1cc2c(CNCc3ccc(F)cc3)cn(Cc3ccc(F)cc3F)c2cn1` [Example 70, 1-(2,4-Difluorobenzyl)-3-{[(4-fluorobenzyl)amino]methyl}-N-hydroxy-1H-pyrrolo[2,3-c]pyridine-5-carboxamide]: the EC50 in test [1] was found to be 22 nM. The IC50 in test [2] was determined as 332 nM.

Consider `C[C@@H](OCc1cn(Cc2ccc(F)cc2)c2cnc(C(=O)N(C)O)cc12)c1ccccc1` [Example 119, 1-(4-Fluorobenzyl)-N-hydroxy-N-methyl-3-{[(1R)-1-phenylethoxy]methyl}-1H-pyrrolo[2,3-c]pyridine-5-carboxamide], for which the EC50 in test [1] came to 505 nM. The IC50 in test [2] was 39 nM.

Take `COc1ncccc1NCc1cn(Cc2ccc(F)cc2F)c2cnc(C(=O)NO)cc12` [Example 90, 1-(2,4-Difluorobenzyl)-N-hydroxy-3—[(2-methoxypyridin-3-yl)amino-methyl]-1H-pyrrolo[2,3-c]pyridine-5-carboxamide]: the EC50 in test [1] is 18 nM. The IC50 in test [2] turned out to be 212 nM.

For the molecule `CCOCCOCc1cn(Cc2ccc(F)cc2)c2cnc(C(=O)N(C)O)cc12` [Example 120, 3-[(2-ethoxyethoxy)methyl]-1-(4-fluorobenzyl)-N-hydroxy-N-methyl-1H-pyrrolo[2,3-c]pyridine-5-carboxamide], in test [1], the EC50 came out at 307 nM. The half-inhibitory concentration (IC50) in test [2] is 57 nM.

`O=C(NO)c1cc2ncn(CCC3CCCCC3)c2cn1` [Example 25, 3-(2-Cyclohexylethyl)-N-hydroxy-3-H-imidazo[4,5-c]pyridine-6-carboxamide]: the EC50 in test [1] came to 230 nM. For the same molecule, the IC50 in test [2] turned out to be 1720 nM.

On to `CC(CO)NCc1cn(Cc2ccc(F)cc2F)c2cnc(C(=O)NO)cc12` (stereo not drawn) [Example 53, 1-(2,4-Difluorobenzyl)-N-hydroxy-3-{[(2-hydroxy-1-methylethyl)amino]methyl}-1H-pyrrolo[2,3-c]pyridine-5-carboxamide], for which, in test [1], the EC50 stood at 11 nM. The IC50 in test [2] came out at 359 nM.

`CN(C)CC(C)(C)CNCc1cn(Cc2ccc(F)cc2F)c2cnc(C(=O)NO)cc12` [Example 61, 1-(2,4-Difluorobenzyl)-3-({[3-(dimethylamino)-2,2-dimethylpropyl]amino}methyl)-N-hydroxy-1H-pyrrolo[2,3-c]pyridine-5-carboxamide]: the EC50 in test [1] is 35 nM. Further, the half-maximal inhibitory concentration (IC50) in test [2] was found to be 916 nM.

With `CC(C)CN(O)C(=O)c1cc2ccn(Cc3ccc(F)cc3)c2cn1` [Example 29, 1-(4-Fluorobenzyl)-N-hydroxy-N-isobutyl-1H-pyrrolo[2,3-c]pyridine-5-carboxamide], in test [1], the EC50 worked out at 1400 nM. In test [2], the IC50 was 1700 nM.

On to `O=C(NO)c1cc2c(CNC3CCOCC3)cn(Cc3ccc(F)cc3F)c2cn1` [Example 91, 1-(2,4-Difluorobenzyl)-N-hydroxy-3-[(tetrahydro-2H-pyran-4-ylamino)methyl]-1H-pyrrolo[2,3-c]pyridine-5-carboxamide], for which, in test [1], the EC50 turned out to be 28 nM. The IC50 in test [2] stood at 519 nM.

With `CN(CCS(C)(=O)=O)Cc1cn(Cc2ccc(F)cc2F)c2cnc(C(=O)NO)cc12` [Example 95, 1-(2,4-difluorobenzyl)-N-hydroxy-3-({methyl[2-(methylsulfonyl)ethyl]amino}methyl)-1H-pyrrolo[2,3-c]pyridine-5-carboxamide], the EC50 in test [1] turned out to be 17 nM. Besides, in test [2], the IC50 worked out at 127 nM.
